Target: P-glycoprotein (Pgp; Abcb1a, MDR3) (Mus musculus, UniProt P21447)
Assay: intrinsic protein fluorescence quenching
Assay type: binding

Sequence of P-glycoprotein (Pgp; Abcb1a, MDR3) (P21447 whole entry): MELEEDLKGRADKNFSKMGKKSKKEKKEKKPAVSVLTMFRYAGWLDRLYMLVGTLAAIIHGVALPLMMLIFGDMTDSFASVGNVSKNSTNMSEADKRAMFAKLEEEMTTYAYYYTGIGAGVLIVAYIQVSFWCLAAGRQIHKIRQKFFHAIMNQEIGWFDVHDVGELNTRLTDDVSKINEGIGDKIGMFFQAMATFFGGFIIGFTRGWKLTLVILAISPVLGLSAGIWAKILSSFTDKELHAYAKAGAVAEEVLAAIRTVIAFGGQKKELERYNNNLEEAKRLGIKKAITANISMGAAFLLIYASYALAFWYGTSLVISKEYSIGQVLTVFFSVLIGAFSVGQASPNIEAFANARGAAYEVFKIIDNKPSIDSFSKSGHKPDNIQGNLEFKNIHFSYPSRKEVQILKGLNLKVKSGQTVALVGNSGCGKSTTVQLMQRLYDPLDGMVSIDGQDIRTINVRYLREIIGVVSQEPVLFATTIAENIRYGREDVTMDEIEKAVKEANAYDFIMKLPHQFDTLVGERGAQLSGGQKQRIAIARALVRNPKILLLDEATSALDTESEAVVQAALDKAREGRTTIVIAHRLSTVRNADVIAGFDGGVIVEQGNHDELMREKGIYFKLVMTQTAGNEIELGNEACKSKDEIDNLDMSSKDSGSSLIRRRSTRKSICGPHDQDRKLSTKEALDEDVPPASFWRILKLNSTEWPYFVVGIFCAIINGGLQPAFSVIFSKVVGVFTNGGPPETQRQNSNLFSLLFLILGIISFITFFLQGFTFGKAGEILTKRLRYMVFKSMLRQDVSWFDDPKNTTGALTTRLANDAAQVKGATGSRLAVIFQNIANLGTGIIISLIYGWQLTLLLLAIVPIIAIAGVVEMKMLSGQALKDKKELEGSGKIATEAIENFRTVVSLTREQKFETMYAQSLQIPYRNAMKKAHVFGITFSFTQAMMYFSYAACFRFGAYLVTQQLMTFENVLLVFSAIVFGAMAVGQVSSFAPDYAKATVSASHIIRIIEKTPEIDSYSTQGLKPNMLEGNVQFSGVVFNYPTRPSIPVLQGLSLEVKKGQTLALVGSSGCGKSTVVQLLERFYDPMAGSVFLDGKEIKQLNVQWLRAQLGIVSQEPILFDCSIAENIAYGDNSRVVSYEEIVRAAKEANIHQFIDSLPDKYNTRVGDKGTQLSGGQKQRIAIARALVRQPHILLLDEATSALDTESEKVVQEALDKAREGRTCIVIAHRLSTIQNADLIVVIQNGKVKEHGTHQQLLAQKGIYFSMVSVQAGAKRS

Row | SMILES | Kd
1 | COc1cccc2c1C(=O)c1c(O)c3c(c(O)c1C2=O)C[C@@](O)(C(C)=O)C[C@@H]3O[C@H]1C[C@H](N)[C@H](O)[C@H](C)O1 [DNR, daunorubicin] | 16.3 ± 0.7 µM
2 | COc1cccc2c1C(=O)c1c(O)c3c(c(O)c1C2=O)C[C@@](O)(C(=O)CO)C[C@@H]3O[C@H]1C[C@H](N)[C@H](O)[C@H](C)O1 [DOX, doxorubicin] | 16.9 ± 1.3 µM
